Series [1] is described as follows: Equilibrium solubility in water and buffers (saturated shake-flask, 37 °C, 24 h). The class given is physicochemical. Here is the method:
The solubility of active pharmaceutical ingredients (API) in water and buffers with various pH values (pH 1.2–pH 7.4) was investigated to guide formulation screening. The equilibrium solubility method was performed based on the saturated shake-flask solubility technique. An excess of each API was added into volumetric flasks containing the medium and placed in a thermostatic shaking chamber (HNY-2102C, Tianjin, China) for 24 h of continuous shaking (150 r/min) at 37 °C. The supernatant was filtered through a 0.45 μm PTFE filter membrane, and then an equal amount of methanol was added to prevent API precipitation. The concentrations were quantified using HPLC. Content analysis was performed using an HPLC system (Thermo Fisher Scientific, Waltham, MA, USA) using methanol:water (88:12, v/v) as the mobile phase. The injection volume of the filtered sample was 10 µL. Separation was performed using an Agilent C18 column (4.60 mm × 250 mm, 5 μm) with a mobile-phase flow rate of 1.0 mL/min. The detection wavelength was set at 203 nm.

Series [2] in a line: Solubility in organic solvents. The class given is physicochemical. To be noted: organic solvent or mixture. Here is the method: The solubility of NRV in organic solvents, including ethanol, propylene glycol, and ethyl acetate, was tested.
Series [3] can be described thus: Recrystallization inhibition by surfactants (solvent shift supersaturation). The format is physicochemical. To be noted: 180 min. The procedure: The solvent shift method was used to create supersaturation. […] The solution was mixed at 50 r/min and 37 °C. A 3 mL sample of the solution was obtained at predetermined time intervals for measurement and supplemented with an equal volume of fresh medium. […] All tests were performed in triplicate.
Particle size measurements were performed at different time points using a Malvern Nano ZSP instrument (Malvern, UK). All tests were performed at 25 °C.

Details of series [4]: method as in PMID 36015346. To be noted: cited from earlier work.
The conditions of series [5]: cited from earlier work.
The nature of series [6]: Solubility in aqueous solutions of different surfactants (0.2% m/v). To be noted: vs no surfactant.
For another series, the system named is SARS-CoV-2 Mpro. The arrangement: method as in PMID 20937904. To be noted: cited from earlier work.

Structures are written as SMILES. ≈ marks a conversion by molar mass, not a printed value. Where two headings read alike, the source gives them in different places. Bounds are passed on as bounds.

For the compound `CC(C)(C)[C@H](NC(=O)C(F)(F)F)C(=O)N1C[C@H]2[C@@H]([C@H]1C(=O)N[C@H](C#N)C[C@@H]1CCNC1=O)C2(C)C` [NRV, (1R,2S,5S)-N-((1S)-1-Cyano-2-((3S)-2-oxopyrrolidin-3-yl)ethyl)-3-((2S)-3,3-dimethyl-2-(2,2,2-trifluoroacetamido)butanoyl)-6,6-dimethyl-3-azabicyclo [3.1.0] hexane-2-carboxamide], the solubility at 24 h is 983.2 ± 5.4 µg/mL (≈ 1970 µM) in series [1] (aqueous buffer, thermodynamic from solid, pH 2.0, 37 °C, read-out: Solubility (concentration, mean ± SD)); 974.7 ± 4.8 µg/mL (≈ 1950 µM) in series [1] (aqueous buffer, thermodynamic from solid, pH 3.8, 37 °C, read-out: Solubility (concentration, mean ± SD)); 973.5 ± 5.3 µg/mL (≈ 1950 µM) in series [1] (aqueous buffer, thermodynamic from solid, pH 4.5, 37 °C, read-out: Solubility (concentration, mean ± SD)); 957.8 ± 7.5 µg/mL (≈ 1920 µM) in series [1] (aqueous buffer, thermodynamic from solid, pH 6.8, 37 °C, read-out: Solubility (concentration, mean ± SD)); 998.8 ± 6.2 µg/mL (≈ 2000 µM) in series [1] (aqueous buffer, thermodynamic from solid, pH 7.4, 37 °C, read-out: Solubility (concentration, mean ± SD)); 950 to 1000 µg/mL (≈ 1900 to 2000 µM) in series [1] (buffers pH 1.2–8.0, read-out: Solubility in each buffer). For the same compound, the solubility at 24 h worked out at 997.7 ± 6.5 µg/mL (≈ 2000 µM) in series [1] (thermodynamic from solid, pH 1.2, 37 °C, read-out: Solubility (concentration, mean ± SD)) and 953.1 ± 7.6 µg/mL (≈ 1910 µM) in series [1] (water, 37 °C, read-out: Solubility in water). In addition, the solubility in series [2] (ethanol, read-out: Solubility in ethanol (crude concentration)) is 16500 to 33000 µg/mL (≈ 33000 to 66100 µM); in series [2] (ethyl acetate, read-out: Solubility in ethyl acetate (crude concentration)), above 57000 µg/mL; in series [2] (propylene glycol, read-out: Solubility in propylene glycol (crude concentration)), below 1600 µg/mL. Besides, in series [3] (aqueous surfactant solutions, 37 °C), the “Change of concentration of supersaturated solution vs original concentration” value is listed as “no significant alteration”. Besides, the “Stability under oxidative and photolytic conditions” value in series [4] is reported as “stable”. Besides, the “Stability under strongly acidic and alkaline conditions” value in series [4] is “hydrolytic”. The BCS class result in series [5] was “II/IV”. Further, the “Logp (Table S1)” value in series [5] (predictive, ref 1–3 (supplement)) is 0.845. Moreover, the “BCS classification (Table S1)” value in series [5] (ref 1–3 (supplement)) is “BCS II / IV”. Also, the “Solubility in words (Table S1)” value in series [5] (ref 1–3 (supplement)) was “low solubility in water and buffered aqueous media”. Also, the “Change of solubility in the presence of poloxamer” value in series [6] was “no significant change”. Also, the “Change of solubility in the presence of HCO and Tween” value in series [6] (p < 0.05) was “increased”.
For the compound `CC(C)c1nc(CN(C)C(=O)N[C@H](C(=O)N[C@@H](Cc2ccccc2)C[C@H](O)[C@H](Cc2ccccc2)NC(=O)OCc2cncs2)C(C)C)cs1` [RTV, 10-Hydroxy-2-methyl-5-(1-methylethyl)-1-[2-(1methylethyl)-4-thiazolyl]-3,6-dioxo-8,11-bis(phenylmethyl)-2,4,7,12-tetraazatridecan-13-oic acid, 5-thiazolylmethyl ester, [5S-(5R*,8R*,10R*,11R*)]], the “Concentration of supersaturated solution during the experimental period” value in series [3] (with HCO and Tween, p < 0.001 vs no surfactant) is given as “effectively sustained”. Besides, in the series on SARS-CoV-2 Mpro, the “Activity against SARS-CoV-2 Mpro” value is “inactive”. For the same compound, the “BCS classification (Table S1)” value in series [5] (ref 1–3 (supplement)) is reported as “BCS II”.

(Values after article PMC10818454, “The Development of an Oral Solution Containing Nirmatrelvir and Ritonavir and Assessment of Its Pharmacokinetics and Stability” (Pharmaceutics, 2024).)
